Data taken from the kinase profiling compilation of Christmann-Franck et al. (2016).

Legend:
Experiment in all cases: KINOMEscan competition binding
Settings in all cases: compound 1.0 µM
ICK (human) = ICK (human) (UniProt Q9UPZ9)
MAST1 (human) = MAST1 (human) (UniProt Q9Y2H9)
BRSK1 (human) = BRSK1 (human) (UniProt Q8TDC3)
PRKACB (human) = PRKACB (human) (UniProt P22694)
ERBB4 (human) = ERBB4 (human) (UniProt Q15303)
FER (human) = FER (human) (UniProt P16591)
[1] = system: EGFR (human), P00533 [T790M/L858R]
FES (human) = FES (human) (UniProt P07332)
IRAK3 (human) = IRAK3 (human) (UniProt Q9Y616)
SRPK1 (human) = SRPK1 (human) (UniProt Q96SB4)
NUAK2 (human) = NUAK2 (human) (UniProt Q9H093)
PDGFRB (human) = PDGFRB (human) (UniProt P09619)
TLK1 (human) = TLK1 (human) (UniProt Q9UKI8)
[2] = system: PIK3CA (human), P42336 [E545K]
[3] = system: KIT (human), P10721 [V559D]
TYRO3 (human) = TYRO3 (human) (UniProt Q06418)
WEE1 (human) = WEE1 (human) (UniProt P30291)
MST4 (human) = MST4 (human) (UniProt Q9P289)
TGFBR1 (human) = TGFBR1 (human) (UniProt P36897)
CAMKK2 (human) = CAMKK2 (human) (UniProt Q96RR4)
NEK1 (human) = NEK1 (human) (UniProt Q96PY6)
STK17A (human) = STK17A (human) (UniProt Q9UEE5)
GRK4 (human) = GRK4 (human) (UniProt P32298)
[4] = target: TYK2 JH2 pseudokinase (human) (UniProt P29597)
MUSK (human) = MUSK (human) (UniProt O15146)
EPHB3 (human) = EPHB3 (human) (UniProt P54753)
FRK (human) = FRK (human) (UniProt P42685)
MAP3K2 (human) = MAP3K2 (human) (UniProt Q9Y2U5)
[5] = target: JAK1 JH2 pseudokinase (human) (UniProt P23458)
YES1 (human) = YES1 (human) (UniProt P07947)
AXL (human) = AXL (human) (UniProt P30530)
MAPKAPK2 (human) = MAPKAPK2 (human) (UniProt P49137)
PLK2 (human) = PLK2 (human) (UniProt Q9NYY3)
EPHA8 (human) = EPHA8 (human) (UniProt P29322)
BLK (human) = BLK (human) (UniProt P51451)
CAMK1D (human) = CAMK1D (human) (UniProt Q8IU85)
[6] = system: FLT3 (human), P36888 [D835H]
MYLK3 (human) = MYLK3 (human) (UniProt Q32MK0)
NEK5 (human) = NEK5 (human) (UniProt Q6P3R8)
LIMK1 (human) = LIMK1 (human) (UniProt P53667)
AKT3 (human) = AKT3 (human) (UniProt Q9Y243)
RAF1 (human) = RAF1 (human) (UniProt P04049)
CDK3 (human) = CDK3 (human) (UniProt Q00526)
CDK3 (human), sequence (Q00526 whole entry, looked up): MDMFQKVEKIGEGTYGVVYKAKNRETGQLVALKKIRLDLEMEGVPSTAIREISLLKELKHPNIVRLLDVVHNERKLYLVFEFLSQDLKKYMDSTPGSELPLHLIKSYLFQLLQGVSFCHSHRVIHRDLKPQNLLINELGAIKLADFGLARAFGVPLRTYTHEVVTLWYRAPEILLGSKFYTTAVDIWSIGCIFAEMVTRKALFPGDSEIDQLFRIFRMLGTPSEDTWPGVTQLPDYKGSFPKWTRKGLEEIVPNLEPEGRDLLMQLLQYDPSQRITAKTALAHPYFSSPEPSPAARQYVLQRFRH

STK17A (human), sequence (Q9UEE5 whole entry, looked up): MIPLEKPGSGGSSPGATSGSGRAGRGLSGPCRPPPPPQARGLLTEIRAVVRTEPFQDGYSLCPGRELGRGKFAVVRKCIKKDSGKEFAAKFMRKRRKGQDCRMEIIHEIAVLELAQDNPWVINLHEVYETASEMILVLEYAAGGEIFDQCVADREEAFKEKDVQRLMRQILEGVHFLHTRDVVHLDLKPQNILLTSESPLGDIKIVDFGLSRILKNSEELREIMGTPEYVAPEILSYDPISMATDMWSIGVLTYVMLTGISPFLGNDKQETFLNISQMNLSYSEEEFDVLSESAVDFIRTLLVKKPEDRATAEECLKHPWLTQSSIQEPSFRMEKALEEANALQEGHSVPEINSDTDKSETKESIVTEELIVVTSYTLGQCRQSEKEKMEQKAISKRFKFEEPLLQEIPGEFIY
IRAK3 (human), sequence (Q9Y616 whole entry, looked up): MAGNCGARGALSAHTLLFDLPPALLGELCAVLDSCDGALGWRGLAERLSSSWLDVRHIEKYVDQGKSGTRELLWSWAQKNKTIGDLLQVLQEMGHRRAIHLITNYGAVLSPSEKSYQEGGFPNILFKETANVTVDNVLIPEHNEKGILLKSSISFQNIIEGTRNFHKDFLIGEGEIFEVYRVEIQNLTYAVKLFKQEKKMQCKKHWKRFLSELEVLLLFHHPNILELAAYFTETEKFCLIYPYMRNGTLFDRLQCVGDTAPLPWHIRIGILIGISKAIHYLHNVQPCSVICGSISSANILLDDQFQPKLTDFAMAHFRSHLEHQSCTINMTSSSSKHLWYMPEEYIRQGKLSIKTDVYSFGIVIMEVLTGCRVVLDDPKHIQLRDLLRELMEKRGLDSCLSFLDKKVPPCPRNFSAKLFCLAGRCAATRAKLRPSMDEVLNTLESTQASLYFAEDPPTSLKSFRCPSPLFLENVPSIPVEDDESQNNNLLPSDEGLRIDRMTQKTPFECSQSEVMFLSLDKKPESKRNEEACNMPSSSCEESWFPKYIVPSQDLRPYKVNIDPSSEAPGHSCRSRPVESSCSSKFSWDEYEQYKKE
ICK (human), sequence (Q9UPZ9 whole entry, looked up): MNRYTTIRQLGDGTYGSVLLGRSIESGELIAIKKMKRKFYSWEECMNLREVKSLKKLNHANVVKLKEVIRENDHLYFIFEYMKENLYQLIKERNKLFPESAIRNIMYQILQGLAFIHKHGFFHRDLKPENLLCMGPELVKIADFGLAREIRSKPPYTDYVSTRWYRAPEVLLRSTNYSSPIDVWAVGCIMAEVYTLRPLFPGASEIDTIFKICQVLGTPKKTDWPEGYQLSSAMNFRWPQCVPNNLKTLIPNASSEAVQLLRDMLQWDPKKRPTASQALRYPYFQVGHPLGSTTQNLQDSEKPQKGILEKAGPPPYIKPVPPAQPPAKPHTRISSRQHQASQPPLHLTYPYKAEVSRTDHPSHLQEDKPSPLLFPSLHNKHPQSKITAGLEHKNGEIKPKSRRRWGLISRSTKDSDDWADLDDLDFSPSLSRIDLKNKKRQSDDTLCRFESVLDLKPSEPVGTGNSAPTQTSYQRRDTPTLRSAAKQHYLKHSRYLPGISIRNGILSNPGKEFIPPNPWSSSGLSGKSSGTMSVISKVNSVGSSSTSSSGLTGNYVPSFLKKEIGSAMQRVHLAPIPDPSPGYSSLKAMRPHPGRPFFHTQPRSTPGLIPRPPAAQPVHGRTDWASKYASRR
EPHA8 (human), sequence (P29322 whole entry, looked up): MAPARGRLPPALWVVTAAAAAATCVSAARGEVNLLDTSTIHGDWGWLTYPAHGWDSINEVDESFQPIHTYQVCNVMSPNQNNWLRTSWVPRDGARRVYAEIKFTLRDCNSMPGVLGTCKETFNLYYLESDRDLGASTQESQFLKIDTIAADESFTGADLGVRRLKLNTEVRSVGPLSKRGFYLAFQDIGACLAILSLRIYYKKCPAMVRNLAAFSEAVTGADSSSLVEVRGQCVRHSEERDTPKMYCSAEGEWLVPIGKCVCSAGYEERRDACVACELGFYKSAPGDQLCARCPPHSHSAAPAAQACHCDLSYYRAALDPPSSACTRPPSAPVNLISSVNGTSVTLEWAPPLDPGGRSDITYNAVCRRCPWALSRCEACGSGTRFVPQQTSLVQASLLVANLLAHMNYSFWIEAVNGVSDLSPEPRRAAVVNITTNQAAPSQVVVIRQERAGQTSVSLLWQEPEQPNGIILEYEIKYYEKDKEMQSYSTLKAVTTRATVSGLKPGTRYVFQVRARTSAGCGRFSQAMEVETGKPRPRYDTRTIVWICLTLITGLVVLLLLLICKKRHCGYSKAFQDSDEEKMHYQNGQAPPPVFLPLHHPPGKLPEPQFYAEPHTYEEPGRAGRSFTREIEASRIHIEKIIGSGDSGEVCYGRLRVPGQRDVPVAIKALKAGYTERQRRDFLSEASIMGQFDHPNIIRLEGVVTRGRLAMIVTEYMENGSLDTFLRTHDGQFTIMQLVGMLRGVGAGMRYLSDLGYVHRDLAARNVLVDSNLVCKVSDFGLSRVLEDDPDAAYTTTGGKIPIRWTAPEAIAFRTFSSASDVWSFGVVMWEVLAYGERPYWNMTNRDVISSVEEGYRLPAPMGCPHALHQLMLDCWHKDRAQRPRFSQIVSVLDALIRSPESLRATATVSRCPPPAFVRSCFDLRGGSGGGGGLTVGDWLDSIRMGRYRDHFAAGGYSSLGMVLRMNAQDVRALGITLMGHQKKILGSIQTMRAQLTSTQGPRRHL
FES (human), sequence (P07332 whole entry, looked up): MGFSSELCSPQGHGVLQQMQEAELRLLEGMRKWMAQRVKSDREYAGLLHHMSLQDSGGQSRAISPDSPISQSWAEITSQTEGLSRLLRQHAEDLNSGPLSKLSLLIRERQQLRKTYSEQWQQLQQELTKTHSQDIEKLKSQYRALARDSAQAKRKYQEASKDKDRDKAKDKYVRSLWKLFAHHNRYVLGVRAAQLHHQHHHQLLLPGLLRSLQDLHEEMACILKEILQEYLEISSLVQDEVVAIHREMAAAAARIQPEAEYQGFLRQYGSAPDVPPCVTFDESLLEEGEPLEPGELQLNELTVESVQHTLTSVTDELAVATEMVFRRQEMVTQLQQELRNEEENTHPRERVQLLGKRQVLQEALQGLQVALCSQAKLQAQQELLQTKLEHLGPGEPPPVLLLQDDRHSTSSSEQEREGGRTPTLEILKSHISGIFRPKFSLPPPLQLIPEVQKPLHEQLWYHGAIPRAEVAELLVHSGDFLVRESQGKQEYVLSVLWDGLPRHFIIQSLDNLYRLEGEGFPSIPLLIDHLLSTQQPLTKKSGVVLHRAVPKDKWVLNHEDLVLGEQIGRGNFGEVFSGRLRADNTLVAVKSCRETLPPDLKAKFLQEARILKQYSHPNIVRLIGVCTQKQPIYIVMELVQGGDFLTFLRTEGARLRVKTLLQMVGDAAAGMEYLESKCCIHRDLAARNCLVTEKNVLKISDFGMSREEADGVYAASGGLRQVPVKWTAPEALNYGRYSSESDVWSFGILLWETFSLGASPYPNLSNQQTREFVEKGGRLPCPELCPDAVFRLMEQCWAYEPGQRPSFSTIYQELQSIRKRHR
CAMKK2 (human), sequence (Q96RR4 whole entry, looked up): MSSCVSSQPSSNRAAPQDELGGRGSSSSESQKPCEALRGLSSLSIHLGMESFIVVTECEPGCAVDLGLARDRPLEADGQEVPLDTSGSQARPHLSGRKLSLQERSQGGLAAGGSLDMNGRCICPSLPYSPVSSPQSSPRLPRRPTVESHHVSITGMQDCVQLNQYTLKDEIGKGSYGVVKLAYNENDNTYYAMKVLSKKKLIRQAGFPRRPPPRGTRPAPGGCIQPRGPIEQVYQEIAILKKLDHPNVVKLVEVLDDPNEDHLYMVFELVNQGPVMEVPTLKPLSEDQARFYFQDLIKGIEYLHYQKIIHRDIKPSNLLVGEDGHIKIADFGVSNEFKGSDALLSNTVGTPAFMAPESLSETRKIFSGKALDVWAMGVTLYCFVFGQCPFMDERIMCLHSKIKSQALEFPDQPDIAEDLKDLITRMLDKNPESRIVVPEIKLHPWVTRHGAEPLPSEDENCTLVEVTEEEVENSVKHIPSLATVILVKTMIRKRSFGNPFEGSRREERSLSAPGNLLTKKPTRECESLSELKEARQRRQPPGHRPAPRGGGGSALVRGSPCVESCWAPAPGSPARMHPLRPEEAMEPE
LIMK1 (human), sequence (P53667 whole entry, looked up): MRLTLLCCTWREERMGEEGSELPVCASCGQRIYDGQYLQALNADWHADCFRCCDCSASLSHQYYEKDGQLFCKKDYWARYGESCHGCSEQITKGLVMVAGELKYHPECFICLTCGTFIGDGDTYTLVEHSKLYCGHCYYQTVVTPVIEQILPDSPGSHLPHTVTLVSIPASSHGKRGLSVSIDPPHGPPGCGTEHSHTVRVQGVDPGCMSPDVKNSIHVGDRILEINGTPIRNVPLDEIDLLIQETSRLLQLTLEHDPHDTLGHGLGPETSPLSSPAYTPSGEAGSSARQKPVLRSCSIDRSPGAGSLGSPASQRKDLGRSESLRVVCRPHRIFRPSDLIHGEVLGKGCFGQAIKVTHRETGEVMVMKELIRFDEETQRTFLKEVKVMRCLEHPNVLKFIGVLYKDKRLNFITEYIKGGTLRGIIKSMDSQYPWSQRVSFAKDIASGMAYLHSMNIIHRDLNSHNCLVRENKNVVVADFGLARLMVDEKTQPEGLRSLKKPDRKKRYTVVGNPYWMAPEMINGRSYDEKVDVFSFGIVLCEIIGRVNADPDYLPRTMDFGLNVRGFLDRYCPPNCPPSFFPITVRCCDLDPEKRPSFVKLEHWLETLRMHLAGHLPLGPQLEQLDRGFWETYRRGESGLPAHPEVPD

SMILES: CN(C)C/C=C/C(=O)Nc1cccc(C(=O)Nc2ccc(Nc3nccc(/C(C#N)=C4\Nc5ccccc5S4)n3)cc2)c1
- kinase still bound, per cent of control (ICK (human)): 100%
- kinase still bound, per cent of control (MAST1 (human)): 100%
- kinase still bound, per cent of control (BRSK1 (human)): 90%
- kinase still bound, per cent of control (PRKACB (human)): 100%
- kinase still bound, per cent of control (ERBB4 (human)): 100%
- kinase still bound, per cent of control (FER (human)): 82%
- kinase still bound, per cent of control [1]: 100%
- kinase still bound, per cent of control (FES (human)): 100%
- kinase still bound, per cent of control (IRAK3 (human)): 51%
- kinase still bound, per cent of control (SRPK1 (human)): 91%
- kinase still bound, per cent of control (NUAK2 (human)): 100%
- kinase still bound, per cent of control (PDGFRB (human)): 35%
- kinase still bound, per cent of control (TLK1 (human)): 100%
- kinase still bound, per cent of control [2]: 100%
- kinase still bound, per cent of control [3]: 11%
- kinase still bound, per cent of control (TYRO3 (human)): 100%
- kinase still bound, per cent of control (WEE1 (human)): 100%
- kinase still bound, per cent of control (MST4 (human)): 100%
- kinase still bound, per cent of control (TGFBR1 (human)): 97%
- kinase still bound, per cent of control (CAMKK2 (human)): 100%
- kinase still bound, per cent of control (NEK1 (human)): 100%
- kinase still bound, per cent of control (STK17A (human)): 100%
- kinase still bound, per cent of control (GRK4 (human)): 78%
- kinase still bound, per cent of control [4]: 33%
- kinase still bound, per cent of control (MUSK (human)): 70%
- kinase still bound, per cent of control (EPHB3 (human)): 95%
- kinase still bound, per cent of control (FRK (human)): 100%
- kinase still bound, per cent of control (MAP3K2 (human)): 100%
- kinase still bound, per cent of control [5]: 81%
- kinase still bound, per cent of control (YES1 (human)): 100%
- kinase still bound, per cent of control (AXL (human)): 100%
- kinase still bound, per cent of control (MAPKAPK2 (human)): 92%
- kinase still bound, per cent of control (PLK2 (human)): 65%
- kinase still bound, per cent of control (EPHA8 (human)): 100%
- kinase still bound, per cent of control (BLK (human)): 100%
- kinase still bound, per cent of control (CAMK1D (human)): 100%
- kinase still bound, per cent of control [6]: 62%
- kinase still bound, per cent of control (MYLK3 (human)): 100%
- kinase still bound, per cent of control (NEK5 (human)): 100%
- kinase still bound, per cent of control (LIMK1 (human)): 100%
- kinase still bound, per cent of control (AKT3 (human)): 100%
- kinase still bound, per cent of control (RAF1 (human)): 91%
- kinase still bound, per cent of control (CDK3 (human)): 100%
